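A five-concentration, 48-hour dose response in 96-well plates underlies each endpoint, interpolated linearly between surrounding concentrations. GI50: concentration for 50% inhibition of growth. Definition used: TGI = concentration required for complete inhibition of growth.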
What was measured:
Experiment in all cases: NCI anticancer screen, dose series, 48 h
[1] = tested on: SK-MEL-28 melanoma
[2] = tested on: SNB-75 CNS
[3] = tested on: NCI-H522 lung
[4] = tested on: COLO 205 colon
[5] = tested on: HT29 colon
[6] = tested on: 786-0 renal
[7] = tested on: MDA-MB-435
[8] = tested on: DU-145 prostate
[9] = tested on: NCI/ADR-RES ovarian
[10] = tested on: PC-3 prostate

C/C(CC(=O)Nc1ccc([N+](=O)[O-])cc1)=N/N=C(N)N
TGI [1]: > 100 µM | TGI [2]: > 100 µM | TGI [3]: > 100 µM | TGI [4]: > 100 µM | TGI [5]: > 100 µM | TGI [6]: > 100 µM

CC(C)(C)C1CCN(C(=O)c2ccccc2)CC1
TGI [2]: > 100 µM | TGI [3]: > 100 µM | TGI [4]: > 100 µM | TGI [5]: > 100 µM | TGI [6]: > 100 µM

Cc1ccccc1C(C#N)/C(=N/NC(=O)C(=O)NN)C(=O)Nc1cccc(C(F)(F)F)c1 (stereo not drawn)
TGI [1]: > 100 µM | TGI [2]: > 100 µM | TGI [3]: > 100 µM | TGI [4]: > 100 µM | TGI [5]: > 100 µM | TGI [6]: > 100 µM

CCC1=C[C@H]2CN(CCc3c([nH]c4ccccc34)[C@@](C(=O)OC)(c3cc4c(cc3OC)N(C)[C@H]3[C@@](O)(C(=O)OC)[C@H](OC(C)=O)[C@]5(CC)[C@@H]6C[C@@H]6CN6CC[C@]43[C@@H]65)C2)C1
GI50 [7]: 0.00603 µM | TGI [7]: 0.0211 µM | GI50 [8]: 0.0239 µM | TGI [8]: 3.15 µM | GI50 [1]: 2.91 µM | TGI [1]: 6.48 µM | GI50 [2]: 0.595 µM | TGI [2]: > 25 µM | GI50 [9]: 0.161 µM | TGI [9]: 1.42 µM | GI50 [3]: 0.011 µM | TGI [3]: 0.302 µM | GI50 [5]: 0.0113 µM | TGI [5]: 2.91 µM | GI50 [6]: 0.0315 µM | TGI [6]: 3.07 µM | GI50 [10]: 0.0178 µM | TGI [10]: 4.24 µM

COC(=O)CCC(=O)C(C#N)c1ccc(Cl)cc1Cl (stereo not drawn)
TGI [1]: > 100 µM | TGI [2]: > 100 µM | TGI [3]: > 100 µM | TGI [5]: > 100 µM | TGI [6]: > 100 µM

C[C@H]1[C@H](C)CC[C@]2(C(=O)O)CC[C@]3(C)C(=CC[C@@H]4[C@@]5(C)CC[C@H](OC(=O)/C=C\c6ccc(O)cc6)C(C)(C)[C@@H]5CC[C@]43C)[C@H]12
GI50 [7]: 4.24 µM | TGI [7]: 42.4 µM | GI50 [8]: 4.07 µM | TGI [8]: 17.6 µM | GI50 [1]: 18 µM | TGI [1]: 57 µM | GI50 [2]: 22.3 µM | TGI [2]: 45.9 µM | GI50 [9]: 3.02 µM | TGI [9]: 15 µM | GI50 [3]: 5.58 µM | TGI [3]: > 100 µM | GI50 [4]: 3.85 µM | TGI [4]: 14.8 µM | GI50 [5]: 4.87 µM | TGI [5]: 19.5 µM | GI50 [6]: 3.22 µM | TGI [6]: 16 µM

COc1cc2c(cc1C)NC(=O)/C2=C/c1c(C)nc2sc(C)cn12
GI50 [7]: 32.4 µM | TGI [7]: > 100 µM | GI50 [8]: > 100 µM | TGI [8]: > 100 µM | GI50 [1]: > 100 µM | TGI [1]: > 100 µM | GI50 [9]: 45.5 µM | TGI [9]: > 100 µM | GI50 [3]: 52.5 µM | TGI [3]: > 100 µM | GI50 [4]: 73.6 µM | TGI [4]: > 100 µM | GI50 [5]: > 100 µM | TGI [5]: > 100 µM | GI50 [6]: > 100 µM | TGI [6]: > 100 µM | GI50 [10]: 34.3 µM | TGI [10]: > 100 µM

O=c1nc2[nH]nc(-c3ccccc3)c2n[nH]1
TGI [1]: > 100 µM | TGI [3]: > 100 µM | TGI [4]: > 100 µM | TGI [5]: > 100 µM | TGI [6]: 52 µM

NC(CCCNCc1ccccc1O)C(=O)O (stereo not drawn)
TGI [1]: > 100 µM | TGI [2]: > 100 µM | TGI [3]: > 100 µM | TGI [4]: > 100 µM | TGI [5]: > 100 µM | TGI [6]: > 100 µM

N#Cc1ccccc1/C=N/O
TGI [1]: > 100 µM | TGI [2]: > 100 µM | TGI [3]: > 100 µM | TGI [4]: > 74.9 µM | TGI [5]: > 100 µM | TGI [6]: > 100 µM

COC(=O)/C(Cl)=C1/CC1COCc1ccccc1 (stereo not drawn)
TGI [1]: 47.4 µM | TGI [2]: > 100 µM | TGI [3]: 40.5 µM | TGI [4]: 44.4 µM | TGI [5]: 58 µM | TGI [6]: 42.2 µM

COc1cc([C@@H]2c3cc4c(cc3[C@@H](NC(=O)c3ccc([N+](=O)[O-])cc3)C3COC(=O)[C@@H]32)OCO4)cc(OC)c1O (stereo partly drawn)
TGI [1]: 89 µM | TGI [2]: 4.86 µM | TGI [3]: 2.09 µM | TGI [4]: 10.4 µM | TGI [5]: 5.68 µM | TGI [6]: 1.4 µM

C/C(CN1C(=O)c2ccccc2C1=O)=N\NS(C)(=O)=O
TGI [1]: > 100 µM | TGI [2]: > 100 µM | TGI [3]: > 100 µM | TGI [4]: > 100 µM | TGI [5]: > 100 µM | TGI [6]: > 100 µM

Cn1cc(-c2nc(-c3cn(C)c4ncccc34)cs2)c2cc(F)ccc21
GI50 [7]: 0.237 µM | TGI [7]: 0.713 µM | GI50 [8]: 2.79 µM | TGI [8]: 21.9 µM | GI50 [1]: 2.42 µM | TGI [1]: > 100 µM | GI50 [2]: 1.27 µM | TGI [2]: 4.27 µM | GI50 [9]: 0.511 µM | TGI [9]: 8.61 µM | GI50 [3]: 0.367 µM | TGI [3]: 7.57 µM | GI50 [4]: 1.44 µM | TGI [4]: 7.49 µM | GI50 [6]: 2.57 µM | TGI [6]: 12.8 µM | GI50 [10]: 2.13 µM | TGI [10]: 32 µM

Cn1c(-c2ccccc2)c/c(=N\NS(C)(=O)=O)c2cc(S(=O)(=O)O)ccc21
TGI [1]: > 100 µM | TGI [2]: > 100 µM | TGI [3]: > 100 µM | TGI [4]: > 100 µM | TGI [5]: > 100 µM | TGI [6]: > 100 µM

Clc1ccc(CCn2cncn2)c(Cl)c1
TGI [1]: > 100 µM | TGI [2]: > 100 µM | TGI [3]: > 100 µM | TGI [4]: > 100 µM | TGI [5]: > 100 µM | TGI [6]: > 100 µM

C#CCOc1c(OC)cc(C(=O)/C(C)=C/c2cccc(N=[N+]=[N-])c2)cc1OC
GI50 [8]: 0.296 µM | TGI [8]: > 100 µM | GI50 [1]: 29 µM | TGI [1]: > 100 µM | GI50 [9]: 0.119 µM | TGI [9]: > 100 µM | GI50 [3]: 0.155 µM | TGI [3]: 0.8 µM | GI50 [4]: 0.3 µM | TGI [4]: 2.98 µM | GI50 [5]: 0.0576 µM | TGI [5]: 73.4 µM | GI50 [6]: 0.18 µM | TGI [6]: > 100 µM | GI50 [10]: 0.132 µM | TGI [10]: > 100 µM

C#Cc1ccc(-n2c(/C=C/c3ccc4ccccc4n3)nc3ncccc3c2=O)cc1
GI50 [1]: 0.904 µM | TGI [1]: 2.13 µM | GI50 [2]: 0.389 µM | TGI [2]: 1.45 µM | GI50 [9]: 0.338 µM | TGI [9]: 1.23 µM | GI50 [3]: 0.281 µM | TGI [3]: 0.779 µM | GI50 [4]: 0.3 µM | TGI [4]: 0.734 µM | GI50 [5]: 0.375 µM | TGI [5]: 1.13 µM | GI50 [6]: 0.575 µM | TGI [6]: 2.24 µM | GI50 [10]: 0.341 µM | TGI [10]: 1.75 µM

[O-][N+]1=C(c2ccccc2)COc2ccccc21
TGI [1]: > 100 µM | TGI [2]: > 100 µM | TGI [3]: > 100 µM | TGI [4]: > 100 µM | TGI [5]: > 100 µM | TGI [6]: > 100 µM

Cc1cc2c(=O)cc(-c3ccc(C(=O)O)cc3)oc2c(C(=O)O)c1C
TGI [1]: > 100 µM | TGI [2]: > 100 µM | TGI [3]: > 100 µM | TGI [4]: > 100 µM | TGI [5]: > 100 µM | TGI [6]: > 100 µM

COC(C(=O)[C@@H](O)[C@@H](C)O)[C@@H]1Cc2cc3cc(O[C@H]4C[C@@H](O[C@H]5C[C@@H](O)[C@H](O)C(C)O5)[C@H](O)C(C)O4)c(C)c(O)c3c(O)c2C(=O)[C@H]1O[C@H]1C[C@@H](O[C@H]2C[C@@H](O[C@H]3C[C@@H](O)[C@@H](O)C(C)O3)[C@@H](O)C(C)O2)[C@H](O)C(C)O1 (stereo partly drawn)
GI50 [7]: 0.27 µM | TGI [7]: 2.99 µM | GI50 [8]: 0.61 µM | TGI [8]: > 32.5 µM | GI50 [1]: 0.147 µM | TGI [1]: 1.93 µM | GI50 [2]: 0.165 µM | TGI [2]: 3.7 µM | GI50 [9]: > 32.5 µM | TGI [9]: > 32.5 µM | GI50 [3]: 0.058 µM | TGI [3]: 1.62 µM | GI50 [5]: 0.368 µM | TGI [5]: > 32.5 µM | GI50 [6]: 0.305 µM | TGI [6]: > 32.5 µM | GI50 [10]: 0.914 µM | TGI [10]: > 32.5 µM

FC(F)(F)c1ccccc1C=NC12CC3CC(CC(C3)C1)C2
TGI [1]: > 100 µM | TGI [2]: > 100 µM | TGI [4]: > 100 µM | TGI [5]: > 100 µM | TGI [6]: > 100 µM

From PubChem BioAssay (NCI)
